Values of other authors in US20130315977A1, “TRANSDERMAL PATCH” (priority 2011, published 2013).

Legend:
serotonin 5-HT2 receptor = conditions: as compared to haloperidol
dopamine D2 = dopamine D2 (Homo sapiens, UniProt P14416); conditions: as compared to haloperidol
Chain of dopamine D2 (P14416 whole entry): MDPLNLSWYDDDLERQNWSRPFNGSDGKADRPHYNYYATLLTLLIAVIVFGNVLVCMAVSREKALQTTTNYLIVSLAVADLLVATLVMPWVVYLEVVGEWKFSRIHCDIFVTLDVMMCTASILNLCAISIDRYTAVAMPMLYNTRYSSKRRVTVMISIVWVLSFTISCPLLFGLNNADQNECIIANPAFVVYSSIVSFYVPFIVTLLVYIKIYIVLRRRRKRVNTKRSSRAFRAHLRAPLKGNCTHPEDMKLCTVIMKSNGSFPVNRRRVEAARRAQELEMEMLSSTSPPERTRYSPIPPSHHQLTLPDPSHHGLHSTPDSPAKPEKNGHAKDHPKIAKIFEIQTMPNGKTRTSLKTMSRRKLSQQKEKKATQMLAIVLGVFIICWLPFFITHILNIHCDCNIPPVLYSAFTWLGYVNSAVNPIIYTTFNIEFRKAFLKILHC

SMILES: CCN1CCN(c2cc(-c3ccc(F)cc3)c3c(n2)CCCCCC3)CC1 [Blonanserin, 2-(4-ethyl-1-piperazinyl)-4-(4-fluorophenyl)-5,6,7,8,9,10-hexahydrocycloocta[b]pyridine]
- affinity for serotonin 5-HT2 receptor (serotonin 5-HT2 receptor): high affinity
- affinity for dopamine D2 (dopamine D2): high affinity
